Reference: patent US9145405B2, “Oxadiazole compound and preparation method thereof, pharmaceutical composition and use thereof” (SHANGHAI JIAO TONG UNIVERSITY, priority 2011, dated 2015)
≈ marks a conversion by molar mass, not a printed value. Like-named read-outs stand apart in the source and are kept apart here.

Experiments:
[1] = system: Cox_B3 virus; experiment: Anti-Cox_B3 test: inhibition of cytopathic effect (CPE) in infected Vero cells, Reed-Muench; type: cell-based; conditions: Cox_B3 virus in Vero cells, CPE, Reed-Muench method; for IC50: read-out: IC50 (half-inhibitory concentration for viruses)
Excerpt: The present examples verifies experimental results of anti-Cox_B3 of the compounds 1-137of the present invention, Pleconaril, 3-[3,5-dimethyl-4-[5-(3-methy-1,2-oxazolyl)propoxy]phenyl]-5-(trifluonomethyl) -1,2,4-oxadiazole is used as positive control.

[2] = system: Vero cells; experiment: Toxicity (half toxic concentration) in the anti-Cox_B3 test on Vero cells; type: cell-based

Cc1cc(-c2noc(C(F)(F)F)n2)cc(C)c1OCCOc1c(Cl)cccc1Cl [Compound 42, 3-[3,5-dimethyl-4-[(2,6-dichlorophenoxyl)ethoxyl]phenyl]-5-(trifluoromethyl)-1,2,4-oxadiazole]
IC50 [1]: 0.033 µg/mL (≈ 0.0738 µM)
TC50 (half of the toxic concentration) ([2]; Vero cells, Cox_B3): 36.89 µg/mL

Cc1nc(-c2cnc(OCCOc3c(C)cc(-c4noc(C(F)(F)F)n4)cc3C)c(F)c2)no1 [Compound 115, 2-[2-[2,6-dimethyl-4-[5-(trifluoromethyl)-1,2,4-oxadiazole-3-yl]phenoxyl]ethoxyl]-3-fluoro-5-(5-methyl-1,2,4-oxadiazole-3-yl)-pyridine]
IC50 [1]: 0.037 µg/mL (≈ 0.0772 µM)
TC50 (half of the toxic concentration) ([2]; Vero cells, Cox_B3): 37.55 µg/mL

Cc1ccc(OCCOc2c(C)cc(-c3noc(C(F)(F)F)n3)cc2C)c(F)c1 [Compound 39, 3-[3,5-dimethyl-4-[(2-fluoro-4-methylphenoxyl)ethoxyl]phenyl]-5-(trifluoromethyl)-1,2,4-oxadiazole]
IC50 [1]: 0.056 µg/mL (≈ 0.136 µM)
TC50 (half of the toxic concentration) ([2]; Vero cells, Cox_B3): 44.28 µg/mL

3-[2,6-dimethyl-4-[(5-(trifluoromethyl)-1,2,4-oxadiazole-3-yl)phenoxyl]ethoxyl]-6-methylpyridazine [Compound 110]
IC50 (half-inhibitory concentration for viruses) [1]: 0.28 µg/mL
TC50 (half of the toxic concentration) [2]: 36.89 µg/mL

3-[3,5-dimethyl-4-[2-(4-methylthiazole-2-thio)ethoxyl]phenyl]-5-(trifluoromethyl)-1,2,4-oxadiazole [Compound 68]
IC50 (half-inhibitory concentration for viruses) [1]: 0.38 µg/mL
TC50 (half of the toxic concentration) [2]: 43.87 µg/mL

3-[2-[2,6-dimethyl-4-[5-(trifluoromethyl)-1,2,4-oxadiazole-3-yl]phenoxyl]ethoxyl]isoxazole-5-carboxylate [Compound 58]
IC50 (half-inhibitory concentration for viruses) [1]: 0.082 µg/mL
TC50 (half of the toxic concentration) [2]: 40.67 µg/mL

Cc1cc(-c2noc(C(F)(F)F)n2)cc(C)c1OCCOc1cc(C(F)(F)F)on1 [Compound 3, 3-[3,5-dimethyl-4-[2-(5-trifluoromethylisoxazole-3-oxy)ethoxyl]phenyl]-5-(trifluoromethyl)-1,2,4-oxadiazole]
IC50 [1]: 0.18 µg/mL (≈ 0.412 µM)
TC50 (half of the toxic concentration) ([2]; Vero cells, Cox_B3): 36.68 µg/mL

4-[2,6-dimethyl-4-[(5-(trifluoromethyl)-1,2,4-oxadiazole-3-yl)phenoxyl]ethoxyl]-2-methoxyl-5-fluoropyrimidine [Compound 54]
IC50 (half-inhibitory concentration for viruses) [1]: 0.067 µg/mL
TC50 (half of the toxic concentration) [2]: 43.15 µg/mL

6-[2,6-dimethyl-4-[(5-(trifluoromethyl)-1,2,4-oxadiazole-3-yl)phenoxyl]ethoxyl]-3-cyanopyridine [Compound 104]
IC50 (half-inhibitory concentration for viruses) [1]: 0.082 µg/mL
TC50 (half of the toxic concentration) [2]: 37.56 µg/mL

Cc1nc(-c2ccc(OCCOc3c(C)cc(-c4noc(C(F)(F)F)n4)cc3C)cc2)no1 [Compound 111, 3-[3,5-dimethyl-4-[2-[4-(5-methyl-1,2,4-oxadiazole-3-yl)phenoxyl]ethoxyl]phenyl]-5-(trifluoromethyl)-1,2,4-oxadiazole]
IC50 [1]: 0.051 µg/mL (≈ 0.111 µM)
TC50 (half of the toxic concentration) ([2]; Vero cells, Cox_B3): 38.21 µg/mL

Cc1cc(OCCCOc2c(C)cc(-c3noc(C(F)(F)F)n3)cc2C)ns1 [Compound 11, 3-[3,5-dimethyl-4-[3-(5-methylisothiazole-3-oxy)propoxy]phenyl]-5-(trifluoromethyl)-1,2,4-oxadiazole]
IC50 [1]: 0.058 µg/mL (≈ 0.14 µM)
TC50 (half of the toxic concentration) ([2]; Vero cells, Cox_B3): 45.87 µg/mL

Cc1cc(-c2noc(C(F)(F)F)n2)cc(C)c1OCCOc1ccc([N+](=O)[O-])cc1F [Compound 41, 3-[3,5-dimethyl-4-[(2-fluoro-4-nitrophenoxyl)ethoxyl]phenyl]-5-(trifluoromethyl)-1,2,4-oxadiazole]
IC50 [1]: 0.033 µg/mL (≈ 0.0748 µM)
TC50 (half of the toxic concentration) ([2]; Vero cells, Cox_B3): 46.89 µg/mL

Cc1nc(-c2ccc(OCCCOc3c(C)cc(-c4noc(C(F)(F)F)n4)cc3C)nc2)no1 [Compound 119, 2-[3-[2,6-dimethyl-4-[5-(trifluoromethyl)-1,2,4-oxadiazole-3-yl]phenoxyl]propoxy]-5-(5-methyl-1,2,4-oxadiazole-3-yl]-pyridine]
IC50 [1]: 0.042 µg/mL (≈ 0.0883 µM)
TC50 (half of the toxic concentration) ([2]; Vero cells, Cox_B3): 36.28 µg/mL

Cc1nc(-c2ccc(OCCCOc3c(C)cc(-c4noc(C(F)(F)F)n4)cc3C)cc2)no1 [Compound 117, 3-[3,5-dimethyl-4-[3-[4-(5-methyl-1,2,4-oxadiazole-3-yl]phenoxyl]propoxy]phenyl]-5-(trifluoromethyl)-1,2,4-oxadiazole]
IC50 [1]: 0.033 µg/mL (≈ 0.0696 µM)
TC50 (half of the toxic concentration) ([2]; Vero cells, Cox_B3): 33.28 µg/mL

3-[3,5-dimethyl-4-[2-(4-methylthiazole-2-thio)ethoxyl]phenyl]-5-(trifluoromethyl)-1,2,4-oxadiazole [Compound 14]
IC50 (half-inhibitory concentration for viruses) [1]: 0.11 µg/mL
TC50 (half of the toxic concentration) [2]: 40.58 µg/mL

Cc1nc(-c2ccc(OCCOc3c(C)cc(-c4noc(C(F)(F)F)n4)cc3C)nc2)no1 [Compound 113, 2-[2-[2,6-dimethyl-4-[5-(trifluoromethyl)-1,2,4-oxadiazole-3-yl]phenoxyl]ethoxyl]-5-(5-methyl-1,2,4-oxadiazole-3-yl)-pyridine]
IC50 [1]: 0.036 µg/mL (≈ 0.078 µM)
TC50 (half of the toxic concentration) ([2]; Vero cells, Cox_B3): 35.22 µg/mL

Cc1cc(-c2noc(C(F)(F)F)n2)cc(C)c1OCCCOc1ncc(-c2noc(C(F)(F)F)n2)cc1F [Compound 122, 2-[3-[2,6-dimethyl-4-[5-(trifluoromethyl)-1,2,4-oxadiazole-3-yl]phenoxyl]propoxy]-3-fluoro-5-[5-(trifluoromethyl)-1,2,4-oxadiazole-3-yl]-pyridine]
IC50 [1]: 0.041 µg/mL (≈ 0.0749 µM)
TC50 (half of the toxic concentration) ([2]; Vero cells, Cox_B3): 34.87 µg/mL

6-[2,6-dimethyl-4-[(5-(trifluoromethyl)-1,2,4-oxadiazole-3-yl)phenoxyl]ethoxyl]-5-fluoro-3-cyanopyridine [Compound 46]
IC50 (half-inhibitory concentration for viruses) [1]: 0.088 µg/mL
TC50 (half of the toxic concentration) [2]: 38.58 µg/mL

6-[2,6-dimethyl-4-[(5-(trifluoromethyl)-1,2,4-oxadiazole-3-yl)phenoxyl]ethoxyl]-5-fluoro-3-cyanopyridine [Compound 100]
IC50 (half-inhibitory concentration for viruses) [1]: 0.069 µg/mL
TC50 (half of the toxic concentration) [2]: 38.63 µg/mL

5-[2,6-dimethyl-4-[(5-(trifluoromethyl)-1,2,4-oxadiazole-3-yl)phenoxyl]ethoxyl]pyridine-2-oxy-ethylketoxime [Compound 99]
IC50 (half-inhibitory concentration for viruses) [1]: 0.083 µg/mL
TC50 (half of the toxic concentration) ([2]; Vero cells, Cox_B3): 37.81 µg/mL

Cc1cc(OCCOc2c(C)cc(-c3noc(C(F)(F)F)n3)cc2C)ns1 [Compound 10, 3-[3,5-dimethyl-4-[2-(5-methylisothiazole-3-oxy)ethoxyl]phenyl]-5-(trifluoromethyl)-1,2,4-oxadiazole]
IC50 [1]: 0.042 µg/mL (≈ 0.105 µM)
TC50 (half of the toxic concentration) ([2]; Vero cells, Cox_B3): 46.47 µg/mL

Cc1cc(-c2nc(C(F)(F)F)no2)cc(C)c1OCCOc1noc(C(F)(F)F)n1 [Compound 22]
IC50 (half-inhibitory concentration for viruses) [1]: 0.08 µg/mL
TC50 (half of the toxic concentration) [2]: 40.78 µg/mL

Cc1cc(-c2noc(C(F)(F)F)n2)cc(C)c1OCCOc1cc(C(F)(F)F)no1 [Compound 5, 3-[3,5-dimethyl-4-[2-(3-trifluoromethylisoxazole-5-oxy)ethoxyl]phenyl]-5-(trifluoromethyl)-1,2,4-oxadiazole]
IC50 [1]: 0.05 µg/mL (≈ 0.114 µM)
TC50 (half of the toxic concentration) ([2]; Vero cells, Cox_B3): 40.12 µg/mL

Cc1cc(-c2noc(C(F)(F)F)n2)cc(C)c1OCCCOc1ccc(-c2noc(C(F)(F)F)n2)cc1 [Compound 118, 3-[3,5-dimethyl-4-[3-[4-[5-(trifluoromethyl)-1,2,4-oxadiazole-3-yl]phenoxyl]propoxy]phenyl]-5-(trifluoromethyl)-1,2,4-oxadiazole]
IC50 [1]: 0.048 µg/mL (≈ 0.0908 µM)
TC50 (half of the toxic concentration) ([2]; Vero cells, Cox_B3): 37.21 µg/mL

4-[2,6-dimethyl-4-[(5-(trifluoromethyl)-1,2,4-oxadiazole-3-yl)phenoxyl]ethoxyl]-3-fluorobenzonitrile [Compound 92]
IC50 (half-inhibitory concentration for viruses) [1]: 0.18 µg/mL
TC50 (half of the toxic concentration) [2]: 43.78 µg/mL

3-[3,5-dimethyl-4-[(2-(cyclohexyloxy)-ethoxyl)phenyl]-5-(trifluoromethyl)-1,2,4-oxadiazole [Compound 35]
IC50 (half-inhibitory concentration for viruses) [1]: 0.08 µg/mL
TC50 (half of the toxic concentration) ([2]; Vero cells, Cox_B3): 36.78 µg/mL

Cc1nnc(SCCOc2c(C)cc(-c3noc(C(F)(F)F)n3)cc2C)[nH]1 [Compound 25, 3-[2-[2,6-dimethyl-4-[5-(trifluoromethyl)-1,2,4-oxadiazole-3-yl]phenoxyl]ethylthio]-5-methyl-4H-1,2,4-triazole]
IC50 [1]: 0.09 µg/mL (≈ 0.225 µM)
TC50 (half of the toxic concentration) ([2]; Vero cells, Cox_B3): 40.21 µg/mL

Cc1cc(-c2noc(C(F)(F)F)n2)cc(C)c1OCCOc1nnc(C(F)(F)F)s1 [Compound 30, 3-[3,5-dimethyl-4-[2-[5-trifluoromethyl-1,3,4-thiadiazole-2-oxy]ethoxyl]phenyl]-5-(trifluoromethyl)-1,2,4-oxadiazole]
IC50 [1]: 0.08 µg/mL (≈ 0.176 µM)
TC50 (half of the toxic concentration) ([2]; Vero cells, Cox_B3): 34.39 µg/mL

6-[2,6-dimethyl-4-[(5-(trifluoromethyl)-1,2,4-oxadiazole-3-yl)phenoxyl]ethoxyl]pyridine-2-oxy-ethylketoxime [Compound 98]
IC50 (half-inhibitory concentration for viruses) [1]: 0.093 µg/mL
TC50 (half of the toxic concentration) [2]: 42.89 µg/mL
